Target: T1, Phospholipase D1 (Homo sapiens, UniProt Q13393)
T1 sequence (Q13393 whole entry): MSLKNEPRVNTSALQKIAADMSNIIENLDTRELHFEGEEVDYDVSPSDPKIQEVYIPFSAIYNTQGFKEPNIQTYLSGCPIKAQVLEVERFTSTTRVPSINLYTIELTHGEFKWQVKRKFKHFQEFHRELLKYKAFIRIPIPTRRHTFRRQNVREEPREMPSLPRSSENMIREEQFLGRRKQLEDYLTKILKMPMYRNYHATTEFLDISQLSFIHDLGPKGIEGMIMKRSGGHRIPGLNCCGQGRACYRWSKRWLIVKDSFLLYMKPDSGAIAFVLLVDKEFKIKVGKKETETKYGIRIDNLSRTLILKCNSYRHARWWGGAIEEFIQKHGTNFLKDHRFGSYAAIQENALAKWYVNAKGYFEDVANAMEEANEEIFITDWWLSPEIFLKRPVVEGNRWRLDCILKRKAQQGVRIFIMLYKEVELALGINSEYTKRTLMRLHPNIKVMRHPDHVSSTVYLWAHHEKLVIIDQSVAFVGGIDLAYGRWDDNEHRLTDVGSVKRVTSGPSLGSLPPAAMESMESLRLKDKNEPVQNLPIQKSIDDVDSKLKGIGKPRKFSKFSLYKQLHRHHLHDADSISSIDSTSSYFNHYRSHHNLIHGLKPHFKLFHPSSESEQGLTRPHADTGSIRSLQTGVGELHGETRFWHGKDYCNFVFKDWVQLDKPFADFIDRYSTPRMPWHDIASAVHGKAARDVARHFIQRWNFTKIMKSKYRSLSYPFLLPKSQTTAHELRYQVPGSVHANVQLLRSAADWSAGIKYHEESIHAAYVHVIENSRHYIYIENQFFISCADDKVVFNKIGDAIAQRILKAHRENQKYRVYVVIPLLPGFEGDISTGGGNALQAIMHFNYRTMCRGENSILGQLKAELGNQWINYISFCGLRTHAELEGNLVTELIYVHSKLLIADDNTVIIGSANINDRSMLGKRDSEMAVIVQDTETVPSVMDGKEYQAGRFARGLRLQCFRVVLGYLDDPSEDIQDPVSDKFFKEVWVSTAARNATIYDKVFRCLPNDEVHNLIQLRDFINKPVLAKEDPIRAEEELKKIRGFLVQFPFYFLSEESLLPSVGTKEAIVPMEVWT
Test: Inhibition Assay: In one aspect, the compound inhibits PLD activity; that is, a compound can inhibit PLD1 activity and/or PLD2 activity. In a further aspect, the compound inhibits PLD1 response in Calu-1 cells. In a further aspect, the compound inhibits PLD2 response in HEK293gfpPLD2 cells. In a further aspect, the compound inhibits in vitro PLD1 response. In a further aspect, the compound …
Assay type: cell-based

C[C@@H](CN1CCC2(CC1)C(=O)NC[C@@H]2c1ccc(F)cc1)NC(=O)c1ccc(F)cc1
IC50: 1200 nM

Source: ChEMBL document CHEMBL3886234, “Isoform selective phospholipase D inhibitors” (2015)
